Reference: patent US20250002465A1, “TRIMERIC COPPER CATALYSTS, INTERMEDIATES FOR MAKING SUCH CATALYSTS AND METHOD FOR PREPARING A CYCLOADDITION COMPOUND” (University of Kentucky Research Foundation, priority 2023, published 2025)
pIC50: −log10 of the molar value.

Experiments:
SUM-159 = assay: Cytotoxicity, MTT assay; type: cell-based; conditions: SUM-159 cells, 72 hours
Protocol: FIG. 5 is a-b) Effect of 6 and 7 on cell viability in TNBC cells treated with the complexes for 72 hours. Mean±s.e.m. n=3. c) Structure of AuDTC-alkyne used for click experiment.
We first evaluated the cytotoxicity of the complexes (6 and 7) in triple-negative breast cancer cells, MDA-MB-468 and SUM-159 using MTT assay.

[1] = Stability of the complex to air, moisture and H2O2 (colour, EPR, UV-visible spectroscopy); type: physicochemical; conditions: for Colour change in the presence of air or moisture: over the course of weeks, solid or solution
Protocol: FIG. 2 illustrates Left: UV-vis absorbance spectra of 3+(CH3CN)4CuPF6 in H2O after 18 hours with 5 molar equivalents of H2O2. Right: UV-vis absorbance spectra after addition of N-methylimidazole to 3+(CH3CN)4CuPF6+5 molar equivalents of H2O2 in H2O after 18 hours incubation.
One of the most important aspects of catalysts for the biologically compatible CuAAC reaction is the ability to perform the reaction while not forming any ROS. Most Cu (I) complexes can be rapidly oxidized by oxygen to Cu (II) and form O2—, one of the first ROS that can then go on to react in myriad ways. […] To further verify this, we performed EPR measurements on solutions of 6 in the absence and presence of H2O2.
We then tested the chemical oxidation of solutions of 7 by UV-visible spectroscopy […]. Increasing amounts of H2O2 were added and the absorption spectrum was measured (FIG. 2).
Without the addition of oxidant, an absorption peak at 280 nm is the lowest energy feature in the spectrum. Aqueous solutions of Cu^2+ ions absorb visible light, typically due to low energy d-d transitions. Therefore, if Cu^2+ was formed, we would expect to observe the appearance of a new absorption in the visible region.

[2] = Catalytic CuAAC reaction in water (phenylacetylene, benzyl azide), conversion by GC
MDA-MB-468 = assay: Cytotoxicity, MTT assay; conditions: read-out: IC50 (cytotoxicity), MDA-MB-468 cells, 72 hours
MDA-MB-468 cells = assay: Intracellular Cu(I)-catalyzed click chemistry and mitochondria colocalization, confocal microscopy; type: cell-based; conditions: 100 μM catalyst, no THPTA or ascorbate
[3] = Cyclic voltammetry, oxidation potential; type: physicochemical
[4] = catalyst concentration 20 mM, room temperature, 4 hr, average of two runs
[5] = CH2Cl2, glassy carbon working electrode

Q: With “(Cis,cis-1,3,5-cyclohexanetribenzimidazole-1-butyl-2-yl)2(Cu(I)PF6)3 [compound 6]” as the compound, how does the pIC50 (SUM-159) read?
A: Its pIC50 is 4.08.

Q: And the “Colour change in the presence of air or moisture” value [1]?
A: Its value is “did not change color”.

Q: What about the “EPR active species (Cu2+) after H2O2 addition” value ([1]; solution, EPR) of the same compound?
A: Its value is “no EPR active species”.

Q: What about the Conversion [2, 4] of the same compound?
A: The Conversion was 98%.

Q: What about the pIC50 (MDA-MB-468) of the same compound?
A: The pIC50 was 4.33.

Q: With `OCCCn1cc(CN(Cc2cn(CCCO)nn2)Cc2cn(CCCO)nn2)nn1.[Cu]` [THPTA, Cu tris-(hydroxypropyltriazolyl)-methylamine, reference compound] as the compound, how does the pIC50 (MDA-MB-468) read?
A: Its pIC50 is 4.65.

Q: Which “Click reaction between AuDTC-alkyne and azide fluorescein in cells” value (MDA-MB-468 cells) does the source give for “(Cis,cis-1,3,5-cyclohexanetribenzimidazole-1-(2-(2-methoxyethoxy)ethyl)-2-yl)2(Cu(I)PF6)3 [compound 7]” here?
A: The value was “effectively catalyzed”.

Q: What about the pIC50 (SUM-159) of the same compound?
A: Its pIC50 is less than 4.00.

Q: And the “Change of UV-visible absorption spectrum with N-methylimidazole and H2O2” value ([1]; in-situ formed 7, five equivalents of H2O2 plus N-methylimidazole)?
A: The value was “no change in the absorption spectrum”.

Q: What about the “Colour change in the presence of air or moisture” value [1] of the same compound?
A: Its value is “did not change color”.

Q: What about the “Change of UV-visible absorption spectrum with H2O2” value ([1]; up to five molar equivalents of peroxide, 18 hours, room temperature) of the same compound?
A: The value was “no appreciable change in the absorption spectrum”.

Q: And the Oxidation wave ([3]; 0.1 M LiClO4 in H2O, Hg/Hg2SO4 reference)?
A: The Oxidation wave was “did not observe an oxidation wave”.

Q: What about the “Irreversible reduction wave (Cu+/Cu0)” value ([3]; CH2Cl2) of the same compound?
A: Its value is roughly 0 V vs. SCE.

Q: What about the Oxidation wave [3, 5] of the same compound?
A: Its Oxidation wave is 1.85 V vs SCE.

Q: And the Conversion ([2]; 50 mM loading, water, 35° C., 1 hour)?
A: The Conversion was 75%.

Q: And the Conversion ([2]; catalyst concentration 0.5 μM, water, 35° C., 18 hr)?
A: Its Conversion is 33%.

Q: What about the Conversion ([2]; catalyst concentration 0.5 μM, water, ambient conditions, 18 hours) of the same compound?
A: Its Conversion is 6%.

Q: What about the Conversion ([2]; catalyst concentration 1.0 μM, water, 35° C., 18 hr) of the same compound?
A: The Conversion was 64%.

Q: What about the Conversion ([2]; catalyst concentration 1 μM, water, ambient conditions, 18 hours) of the same compound?
A: Its Conversion is 8%.

Q: What about the Conversion ([2]; catalyst concentration 5 μM, water, 35° C., 18 hr) of the same compound?
A: Its Conversion is roughly 88%.

Q: And the Conversion ([2]; catalyst concentration 5 μM, water, ambient conditions, 18 hours)?
A: The Conversion was roughly 13%.

Q: What about the Conversion ([2]; catalyst concentration 10 μM, water, 35° C., 18 hr) of the same compound?
A: Its Conversion is “quantitative”.

Q: And the Conversion ([2]; catalyst concentration 10 μM, water, ambient conditions, 18 hours)?
A: Its Conversion is roughly 13%.

Q: And the Conversion ([2]; catalyst concentration 50 μM, water, ambient conditions, 18 hours)?
A: The Conversion was roughly 36%.

Q: What about the pIC50 (MDA-MB-468) of the same compound?
A: Its pIC50 is 4.10.

Q: With `CCCCn1c2ccccc2nc1[C@H]1C[C@@H](c2nc3ccccc3n2CCCC)C[C@@H](c2nc3ccccc3n2CCCC)C1` [compound 2, Cis,cis-1,3,5-cyclohexanetribenzimidazole-1-butyl-2-yl] as the compound, how does the Conversion [2, 4] read?
A: The Conversion was “nearly quantitative”.

Q: Which results are given for `COCCOCCn1c2ccccc2nc1[C@H]1C[C@@H](c2nc3ccccc3n2CCOCCOC)C[C@@H](c2nc3ccccc3n2CCOCCOC)C1` [compound 3, Cis,cis-1,3,5-cyclohexanetribenzimidazole-1-(2-(2-methoxyethoxy)ethyl)-2-yl]?
A: Oxidation wave [3, 5]: irreversible oxidation near the same potential; Conversion [2, 4]: nearly quantitative

Q: For `c1ccc2[nH]c([C@H]3C[C@@H](c4nc5ccccc5[nH]4)C[C@@H](c4nc5ccccc5[nH]4)C3)nc2c1` [compound 1, Cis,cis-1,3,5-cyclohexanetribenzimidazole-2-yl], which Conversion [2, 4] is on record?
A: The Conversion was roughly 18%.
